Measured values: patent US8754054B2, “Antibacterial compounds, methods of making them, and uses thereof” (Albany Molecular Research, Inc., priority 2010, dated 2014)
Values after ≈ are worked out from the molar mass of the structure shown. Like-named read-outs stand apart in the source and are kept apart here.

System: MRSA 43300
Experiment: Antibacterial activity, NCCLS dilution method (Table 9)
Format: cell-based, S. aureus
Conditions: for MIC: Staphylococcus aureus, MRSA, read-out: MRSA 43300 MIC
Excerpt: NCCLS standards for antimicrobial susceptibility testing using the dilution method were followed. See: Performance Standards for Antimicrobial Susceptibility Testing; Fourteenth Informational Supplement. NCCLS Document M100-S14 (ISBN 1-56238-516-X), 2004. NCCLS, 940 West Valley Road, Suite 1400, Wayne, Pa. 19087-1898 USA, 2004; Methods for Dilution Antimicrobial Susceptibility Tests for Bacteria that Grow Aerobically; Approved Standard—Sixth Edition. NCCLS document M7-A6 (IBSBN 1-56238-486-4), NCCLS, 940 West Valley Road, Suite 1400, Wayne, Pa. 19087-1898 USA, 2003, which are hereby incorporated by reference in their entirety.

[1] = MRSA 43300, dilution method, labels marked a tested as a mixture of diastereomers

Molecule | MIC [1] | other results
COC(=O)c1c(C)c(Br)c2c(c1O)[C@]1(O)C(=O)c3cc4c(c(O)c3C(=O)[C@]1(OC)[C@H](O)C2)C(=O)C=C(N[C@H]1O[C@@H](C)[C@H](OC)[C@@H](O)[C@H]1OC)C4=O [Example 38, (6R,6aS,14aR)-Methyl 4-bromo-1,6,8,14a-tetrahydroxy-11-((2S,3R,4R,5R,6S)-4-hydroxy-3,5-dimethoxy-6-methyltetrahydro-2H-pyran-2-ylamino)-6a-methoxy-3-methyl-7,9,12,14-tetraoxo-5,6,6a,7,9,12,14,14a-octahydrobenzo[a]tetracene-2-carboxylate] | 1 µg/mL (≈ 1.29 µM) | –
COC(=O)c1c(C)c(Br)c2c(c1O)[C@]1(O)C(=O)c3cc4c(c(O)c3C(=O)[C@]1(OC)[C@H](O)C2)C(=O)C(Br)=C(N[C@H]1O[C@@H](C)[C@H](OC)[C@@H](O)[C@H]1OC)C4=O [Example 39, (6R,6aS,14aR)-Methyl 4,10-dibromo-1,6,8,14a-tetrahydroxy-11-((2S,3R,4R,5R,6S)-4-hydroxy-3,5-dimethoxy-6-methyltetrahydro-2H-pyran-2-ylamino)-6a-methoxy-3-methyl-7,9,12,14-tetraoxo-5,6,6a,7,9,12,14,14a-octahydrobenzo[a]tetracene-2-carboxylate] | 2 µg/mL (≈ 2.34 µM) | –
COC(=O)c1c(C)c(N)c2c(c1O)[C@]1(O)C(=O)c3cc4c(c(O)c3C(=O)[C@]1(OC)[C@H](O)C2)C(=O)C=C(N[C@H]1O[C@@H](C)[C@H](OC)[C@@H](O)[C@H]1OC)C4=O [Example 42, (6R,6aS,14aR)-Methyl 4-amino-1,6,8,14a-tetrahydroxy-11-((2S,3R,4R,5R,6S)-4-hydroxy-3,5-dimethoxy-6-methyltetrahydro-2H-pyran-2-ylamino)-6a-methoxy-3-methyl-7,9,12,14-tetraoxo-5,6,6a,7,9,12,14,14a-octahydrobenzo[a]tetracene-2-carboxylate 2,2,2-trifluoroacetate] | – | MIC: 2 to 4 µg/mL (≈ 2.81 to 5.61 µM)
C/N=C1\C=C(N[C@H]2O[C@@H](C)[C@H](OC)[C@@H](O)[C@H]2OC)C(=O)c2cc3c(c(O)c21)C(=O)[C@]1(OC)[C@H](O)Cc2cc(C)c(C(=O)OC)c(O)c2[C@]1(O)C3=O [Example 44, (6R,6aS,14aR,E)-Methyl 1,6,8,14a-tetrahydroxy-11-((2S,3R,4R,5R,6S)-4-hydroxy-3,5-dimethoxy-6-methyltetrahydro-2H-pyran-2-ylamino)-6a-methoxy-3-methyl-9-(methylimino)-7,12,14-trioxo-5,6,6a,7,9,12,14,14a-octahydrobenzo[a]tetracene-2-carboxylate] | 1 to 2 µg/mL (≈ 1.41 to 2.81 µM) | –
COCC/N=C1\C=C(N[C@H]2O[C@@H](C)[C@H](OC)[C@@H](O)[C@H]2OC)C(=O)c2cc3c(c(O)c21)C(=O)[C@]1(OC)[C@H](O)Cc2cc(C)c(C(=O)OC)c(O)c2[C@]1(O)C3=O [Example 46, (6R,6aS,14aR,E)-methyl 1,6,8,14a-tetrahydroxy-11-((2S,3R,4R,5R,6S)-4-hydroxy-3,5-dimethoxy-6-methyltetrahydro-2H-pyran-2-ylamino)-6a-methoxy-9-(2-methoxyethylimino)-3-methyl-7,12,14-trioxo-5,6,6a,7,9,12,14,14a-octahydrobenzo[a]tetracene-2-carboxylate] | 1 µg/mL (≈ 1.32 µM) | –
COCCC/N=C1\C=C(N[C@H]2O[C@@H](C)[C@H](OC)[C@@H](O)[C@H]2OC)C(=O)c2cc3c(c(O)c21)C(=O)[C@]1(OC)[C@H](O)Cc2cc(C)c(C(=O)OC)c(O)c2[C@]1(O)C3=O [Example 47, (6R,6aS,14aR,E)-Methyl 1,6,8,14a-tetrahydroxy-11-((2S,3R,4R,5R,6S)-4-hydroxy-3,5-dimethoxy-6-methyltetrahydro-2H-pyran-2-ylamino)-6a-methoxy-9-(3-methoxypropylimino)-3-methyl-7,12,14-trioxo-5,6,6a,7,9,12,14,14a-octahydrobenzo[a]tetracene-2-carboxylate] | 1 to 2 µg/mL (≈ 1.3 to 2.6 µM) | –
COC(=O)c1c(C)cc2c(c1O)[C@]1(O)C(=O)c3cc4c(c(O)c3C(=O)[C@]1(OC)[C@H](O)C2)/C(=N/CCCO)C=C(N[C@H]1O[C@@H](C)[C@H](OC)[C@@H](O)[C@H]1OC)C4=O [Example 48, (6R,6aS,14aR,E)-Methyl 1,6,8,14a-tetrahydroxy-11-((2S,3R,4R,5R,6S)-4-hydroxy-3,5-dimethoxy-6-methyltetrahydro-2H-pyran-2-ylamino)-9-(3-hydroxypropylimino)-6a-methoxy-3-methyl-7,12,14-trioxo-5,6,6a,7,9,12,14,14a-octahydrobenzo[a]tetracene-2-carboxylate] | 1 µg/mL (≈ 1.32 µM) | –
CO/N=C1/[C@@H](OC)[C@H](C)O[C@H](NC2=CC(=O)c3c(cc4c(c3O)C(=O)[C@]3(OC)[C@H](O)Cc5cc(C)c(C(=O)OC)c(O)c5[C@]3(O)C4=O)C2=O)[C@@H]1OC [Example 50, (6R,6aS,14aR)-Methyl 11-((2S,3R,5R,6S,Z)-3,5-dimethoxy-4-(methoxyimino)-6-methyltetrahydro-2H-pyran-2-ylamino)-1,6,8,14a-tetrahydroxy-6a-methoxy-3-methyl-7,9,12,14-tetraoxo-5,6,6a,7,9,12,14,14a-octahydrobenzo[a]tetracene-2-carboxylate] | 0.25 µg/mL (≈ 0.345 µM) | –
COC(=O)c1c(C)cc2c(c1O)[C@]1(O)C(=O)c3cc4c(c(O)c3C(=O)[C@]1(OC)[C@H](O)C2)C(=O)C=C(N[C@H]1O[C@@H](C)[C@H](OC)/C(=N/OCC(=O)O)[C@H]1OC)C4=O [Example 51, 2-((Z)-((2S,3R,5R,6S)-3,5-Dimethoxy-2-methyl-6-((6R,6aS,14aR)-1,6,8,14a-tetrahydroxy-6a-methoxy-2-(methoxycarbonyl)-3-methyl-7,9,12,14-tetraoxo-5,6,6a,7,9,12,14,14a-octahydrobenzo[a]tetracen-11-ylamino)-2H-pyran-4(3H,5H,6H)-ylidene)aminooxy)acetic acid] | 8 µg/mL (≈ 10.4 µM) | –
COC(=O)c1c(C)cc2c(c1O)[C@]1(O)C(=O)c3cc4c(c(O)c3C(=O)[C@]1(OC)[C@H](O)C2)C(=O)C=C(N[C@H]1O[C@@H](C)[C@H](OC)/C(=N/OCCN)[C@H]1OC)C4=O [Example 52, (6R,6aS,14aR)-Methyl 11-((2S,3R,5R,6S,Z)-4-(2-aminoethoxyimino)-3,5-dimethoxy-6-methyltetrahydro-2H-pyran-2-ylamino)-1,6,8,14a-tetrahydroxy-6a-methoxy-3-methyl-7,9,12,14-tetraoxo-5,6,6a,7,9,12,14,14a-octahydrobenzo[a]tetracene-2-carboxylate] | 0.12 to 0.25 µg/mL (≈ 0.159 to 0.332 µM) | –
COC(=O)c1c(C)cc2c(c1O)[C@]1(O)C(=O)c3cc4c(c(O)c3C(=O)[C@]1(OC)/C(=N/O)C2)C(=O)C=C(N[C@H]1O[C@@H](C)[C@H](OC)/C(=N/O)[C@H]1OC)C4=O [Example 53, (6aS,14aR,E)-Methyl 1,8,14a-trihydroxy-6-(hydroxyimino)-11-((2S,3R,5R,6S,Z)-4-(hydroxyimino)-3,5-dimethoxy-6-methyltetrahydro-2H-pyran-2-ylamino)-6a-methoxy-3-methyl-7,9,12,14-tetraoxo-5,6,6a,7,9,12,14,14a-octahydrobenzo[a]tetracene-2-carboxylate] | 0.12 µg/mL (≈ 0.166 µM) | –
COC(=O)c1c(C)cc2c(c1O)[C@]1(O)C(=O)c3cc4c(c(O)c3C(=O)[C@]1(OC)[C@H](O)C2)C(=O)C=C(N[C@H]1O[C@@H](C)[C@H](OC)[C@@H](O[C@@H]2O[C@H](CO)[C@@H](O)[C@H](O)[C@H]2O)[C@H]1OC)C4=O [Example 54, (6R,6aS,14aR)-Methyl 11-((2S,3R,4R,5S,6S)-3,5-dimethoxy-6-methyl-4-((2S,3R,4S,5S,6R)-3,4,5-trihydroxy-6-(hydroxymethyl)tetrahydro-2H-pyran-2-yloxy)tetrahydro-2H-pyran-2-ylamino)-1,6,8,14a-tetrahydroxy-6a-methoxy-3-methyl-7,9,12,14-tetraoxo-5,6,6a,7,9,12,14,14a-octahydrobenzo[a]tetracene-2-carboxylate] | 2 µg/mL (≈ 2.33 µM) | –
CCOC(=O)CCC1(O)C(N[C@H]2O[C@@H](C)[C@H](OC)[C@@H](O)[C@H]2OC)=CC(=N)c2c1cc1c(c2O)C(=O)[C@]2(OC)[C@H](O)Cc3cc(C)c(C(=O)OC)c(O)c3[C@]2(O)C1=O (stereo partly drawn) [Example 59, (6R,6aS,14aR)-methyl 12-(3-ethoxy-3-oxopropyl)-1,6,8,12,14a-pentahydroxy-11-((2S,3R,4R,5R,6S)-4-hydroxy-3,5-dimethoxy-6-methyltetrahydro-2H-pyran-2-ylamino)-9-imino-6a-methoxy-3-methyl-7,14-dioxo-5,6,6a,7,9,12,14,14a-octahydrobenzo[a]tetracene-2-carboxylate] | 32 µg/mL (≈ 40.1 µM) | –
COC(=O)c1c(C)cc2c(c1O)[C@]1(O)C(=O)c3cc4c5c(nc(=O)oc5c3C(=O)[C@]1(OC)[C@H](O)C2)C=C(N[C@H]1O[C@@H](C)[C@H](OC)[C@@H](O)[C@H]1OC)C4=O [Example 60, (8aR,12R,12aS)-8a,12-Dihydroxy-5-((2S,3R,4R,5R,6S)-4-hydroxy-3,5-dimethoxy-6-methyltetrahydro-2H-pyran-2-ylamino)-12a-methoxy-8a,9,10,11,12,12a-hexahydro-(1-hydroxy-2-methoxycarbonyl-3-methylbenzo) [9,10-a]tetraceno[1,12-de][1,3]oxazine-2,6,8,13-tetraone] | 0.12 to 0.5 µg/mL (≈ 0.166 to 0.692 µM) | –
(6R,6aS,14aR)-Methyl 1,6,8,12,14a-pentahydroxy-11-((2S,3R,4R,5R,6S)-4-hydroxy-3,5-dimethoxy-6-methyltetrahydro-2H-pyran-2-ylamino)-12-((5-(2-hydroxypropyl)furan-3-yl)methyl)-6a-methoxy-3-methyl-7,9,14-trioxo-5,6,6a,7,9,12,14,14a-octahydrobenzo[a]tetracene-2-carboxylate [Example 61] | – | MRSA 43300 MIC [1]: 0.06 µg/mL
